# Data from ChEMBL document CHEMBL4411307, “N,N'-diaryl-bishydrazones in a biphenyl platform: Broad spectrum antifungal agents” (Eur J Med Chem, 2019).
# Active and inactive are the calls of the source. The rule behind the calls is not given here.
# Columns and labels:
# Listeria monocytogenes = experiment: Antibacterial activity against Listeria monocytogenes; assay type: functional, organism-based
# Staphylococcus aureus = experiment: Antibacterial activity against methicillin-resistant Staphylococcus aureus; assay type: functional, organism-based
# Enterococcus = experiment: Antibacterial activity against vancomycin-resistant Enterococcus; assay type: functional, organism-based
# Candida albicans [1] = experiment: Antifungal activity against fluconazole/ITC-resistant Candida albicans ATCC 10231 measured after 48 hrs by CLSI M27-A3 protocol based method; assay type: functional; settings: ATCC 10231, 48 h
# Candida albicans [2] = experiment: Antifungal activity against fluconazole/ITC-resistant Candida albicans ATCC 64124 measured after 48 hrs by CLSI M27-A3 protocol based method; assay type: functional; settings: ATCC 64124, 48 h
# Candida albicans [3] = experiment: Antifungal activity against fluconazole/ITC-susceptible Candida albicans ATCC MYA-2876 measured after 48 hrs by CLSI M27-A3 protocol based method; assay type: functional; settings: ATCC MYA-2876, 48 h
# Candida albicans [4] = experiment: Antifungal activity against fluconazole/ITC-resistant Candida albicans ATCC 90819 measured after 48 hrs by CLSI M27-A3 protocol based method; assay type: functional; settings: ATCC 90819, 48 h
# Candida albicans [5] = experiment: Antifungal activity against fluconazole/ITC-susceptible Candida albicans ATCC MYA-2310 measured after 48 hrs by CLSI M27-A3 protocol based method; assay type: functional; settings: ATCC MYA-2310, 48 h
# Candida albicans [6] = experiment: Antifungal activity against fluconazole/ITC-resistant Candida albicans ATCC MYA-1237 measured after 48 hrs by CLSI M27-A3 protocol based method; assay type: functional; settings: ATCC MYA-1237, 48 h
# Candida albicans [7] = experiment: Antifungal activity against fluconazole/ITC-resistant Candida albicans ATCC MYA-1003 measured after 48 hrs by CLSI M27-A3 protocol based method; assay type: functional; settings: ATCC MYA-1003, 48 h
# Nakaseomyces glabratus = experiment: Antifungal activity against Candida glabrata ATCC 2001 measured after 48 hrs by CLSI M27-A3 protocol based method; assay type: functional; settings: CBS 138, 48 h
# Pichia kudriavzevii = experiment: Antifungal activity against Candida krusei ATCC 6258 measured after 48 hrs by CLSI M27-A3 protocol based method; assay type: functional; settings: ATCC 6258, 48 h
# Candida parapsilosis = experiment: Antifungal activity against Candida parapsilosis ATCC 22019 measured after 48 hrs by CLSI M27-A3 protocol based method; assay type: functional; settings: Lodderomyces parapsilosis, ATCC 22019, 48 h
# Aspergillus flavus = experiment: Antifungal activity against Aspergillus flavus ATCC MYA-3631 measured after 48 hrs by CLSI M38-A2 protocol based method; assay type: functional; settings: ATCC MYA-3631, 48 h
# Aspergillus nidulans = experiment: Antifungal activity against Aspergillus nidulans ATCC 38163 measured after 48 hrs by CLSI M38-A2 protocol based method; assay type: functional; settings: ATCC 38163, 48 h
# Aspergillus terreus = experiment: Antifungal activity against Aspergillus terreus ATCC MYA-3633 measured after 48 hrs by CLSI M38-A2 protocol based method; assay type: functional; settings: ATCC MYA-3633, 48 h
# A549 = experiment: Cytotoxicity against human A549 cells after 24 hrs by resazurin based assay; assay type: cell-based; settings: a549, 24 h
# BEAS-2B = experiment: Cytotoxicity against human BEAS2B cells after 24 hrs by resazurin based assay; assay type: cell-based
# [8] = Selectivity index, ratio of CC50 for human A549 cells to MIC for fluconazole/ITC-resistant Candida albicans ATCC 10231; assay type: toxicity; settings: read-out: Selectivity Index
# [9] = Selectivity index, ratio of CC50 for human A549 cells to MIC for fluconazole/ITC-resistant Candida albicans ATCC 64124; assay type: toxicity; settings: read-out: Selectivity Index
# [10] = Selectivity index, ratio of CC50 for human A549 cells to MIC for fluconazole/ITC-susceptible Candida albicans ATCC MYA-2876; assay type: toxicity; settings: read-out: Selectivity Index
# [11] = Selectivity index, ratio of CC50 for human A549 cells to MIC for fluconazole/ITC-resistant Candida albicans ATCC 90819; assay type: toxicity; settings: read-out: Selectivity Index
# [12] = Selectivity index, ratio of CC50 for human A549 cells to MIC for fluconazole/ITC-susceptible Candida albicans ATCC MYA-2310; assay type: toxicity; settings: read-out: Selectivity Index
# [13] = Selectivity index, ratio of CC50 for human A549 cells to MIC for fluconazole/ITC-resistant Candida albicans ATCC MYA-1237; assay type: toxicity; settings: read-out: Selectivity Index
# [14] = Selectivity index, ratio of CC50 for human A549 cells to MIC for fluconazole/ITC-resistant Candida albicans ATCC MYA-1003; assay type: toxicity; settings: read-out: Selectivity Index
# [15] = Selectivity index, ratio of CC50 for human A549 cells to MIC for Candida glabrata ATCC 2001; assay type: toxicity; settings: read-out: Selectivity Index
# [16] = Selectivity index, ratio of CC50 for human A549 cells to MIC for Candida krusei ATCC 6258; assay type: toxicity; settings: read-out: Selectivity Index
# [17] = Selectivity index, ratio of CC50 for human A549 cells to MIC for Candida parapsilosis ATCC 22019; assay type: toxicity; settings: read-out: Selectivity Index
# [18] = Selectivity index, ratio of CC50 for human A549 cells to MIC for Aspergillus nidulans ATCC 38163; assay type: toxicity; settings: read-out: Selectivity Index
# [19] = Selectivity index, ratio of CC50 for human A549 cells to MIC for Aspergillus terreus ATCC MYA-3633; assay type: toxicity; settings: read-out: Selectivity Index
# [20] = Hemolytic activity in mouse RBC at […] after 1 hr relative to control; assay type: ADME, cell-based, Erythrocyte; settings: red blood cells (erythrocytes), read-out: Activity; also: tested at 0.48 µg/mL
# [21] = Hemolytic activity in mouse RBC at […] ug/ml after 1 hr relative to control; assay type: ADME, cell-based, Erythrocyte; settings: red blood cells (erythrocytes), read-out: Activity
# [22] = Hemolytic activity in mouse RBC at 1.95 ug/ml after 1 hr relative to control; assay type: ADME, cell-based, Erythrocyte; settings: red blood cells (erythrocytes), read-out: Activity
# [23] = Hemolytic activity in mouse RBC at 3.9 ug/ml after 1 hr relative to control; assay type: ADME, cell-based, Erythrocyte; settings: red blood cells (erythrocytes), read-out: Activity
# [24] = Hemolytic activity in mouse RBC at 7.8 ug/ml after 1 hr relative to control; assay type: ADME, cell-based, Erythrocyte; settings: red blood cells (erythrocytes), read-out: Activity
# [25] = Hemolytic activity in mouse RBC at 31.3 ug/ml after 1 hr relative to control; assay type: ADME, cell-based, Erythrocyte; settings: red blood cells (erythrocytes), read-out: Activity
# [26] = Hemolytic activity in mouse RBC at 62.5 ug/ml after 1 hr relative to control; assay type: ADME, cell-based, Erythrocyte; settings: red blood cells (erythrocytes), read-out: Activity
# [27] = Selectivity index, ratio of compound concentration showing <20 to <30% hemolysis in mouse RBC to MIC for fluconazole/ITC-resistant Candida albicans ATCC 10231; assay type: toxicity; settings: red blood cells (erythrocytes), read-out: Selectivity Index
# [28] = Selectivity index, ratio of compound concentration showing <20 to <30% hemolysis in mouse RBC to MIC for fluconazole/ITC-resistant Candida albicans ATCC 64124; assay type: toxicity; settings: red blood cells (erythrocytes), read-out: Selectivity Index
# [29] = Selectivity index, ratio of compound concentration showing <20 to <30% hemolysis in mouse RBC to MIC for fluconazole/ITC-susceptible Candida albicans ATCC MYA-2876; assay type: toxicity; settings: red blood cells (erythrocytes), read-out: Selectivity Index
# [30] = Selectivity index, ratio of compound concentration showing <20 to <30% hemolysis in mouse RBC to MIC for fluconazole/ITC-resistant Candida albicans ATCC 90819; assay type: toxicity; settings: red blood cells (erythrocytes), read-out: Selectivity Index
# [31] = Selectivity index, ratio of compound concentration showing <20 to <30% hemolysis in mouse RBC to MIC for fluconazole/ITC-susceptible Candida albicans ATCC MYA-2310; assay type: toxicity; settings: mouse red blood cells (RBC), read-out: Selectivity Index
# [32] = Selectivity index, ratio of compound concentration showing <20 to <30% hemolysis in mouse RBC to MIC for fluconazole/ITC-resistant Candida albicans ATCC MYA-1237; assay type: toxicity; settings: mouse red blood cells (RBC), read-out: Selectivity Index
# [33] = Selectivity index, ratio of compound concentration showing <20 to <30% hemolysis in mouse RBC to MIC for fluconazole/ITC-resistant Candida albicans ATCC MYA-1003; assay type: toxicity; settings: mouse red blood cells (RBC), read-out: Selectivity Index
# [34] = Selectivity index, ratio of compound concentration showing <20 to <30% hemolysis in mouse RBC to MIC for Candida glabrata ATCC 2001; assay type: toxicity; settings: mouse red blood cells (RBC), read-out: Selectivity Index
# [35] = Selectivity index, ratio of compound concentration showing <20 to <30% hemolysis in mouse RBC to MIC for Candida krusei ATCC 6258; assay type: toxicity; settings: mouse red blood cells (RBC), read-out: Selectivity Index
# [36] = Selectivity index, ratio of compound concentration showing <20 to <30% hemolysis in mouse RBC to MIC for Candida parapsilosis ATCC 22019; assay type: toxicity; settings: mouse red blood cells (RBC), read-out: Selectivity Index
# [37] = Selectivity index, ratio of compound concentration showing <20 to <30% hemolysis in mouse RBC to MIC for Aspergillus flavus ATCC MYA-3631; assay type: toxicity; settings: mouse red blood cells (RBC), read-out: Selectivity Index
# [38] = Selectivity index, ratio of compound concentration showing <20 to <30% hemolysis in mouse RBC to MIC for Aspergillus nidulans ATCC 38163; assay type: toxicity; settings: mouse red blood cells (RBC), read-out: Selectivity Index
# [39] = Selectivity index, ratio of compound concentration showing <20 to <30% hemolysis in mouse RBC to MIC for Aspergillus terreus ATCC MYA-3633; assay type: toxicity; settings: mouse red blood cells (RBC), read-out: Selectivity Index
compound,measurement,setting,value
Fc1ccc(N/N=C/c2ccc(-c3ccc(/C=N/Nc4ccc(F)cc4)cc3)cc2)cc1,Activity,Listeria monocytogenes,inactive
same,Activity,Staphylococcus aureus,inactive
same,Activity,Enterococcus,inactive
same,MIC,Candida albicans [1],7.8 µg/mL
same,MIC,Candida albicans [2],15.6 µg/mL
same,MIC,Candida albicans [3],7.8 µg/mL
same,MIC,Candida albicans [4],31.3 µg/mL
same,MIC,Candida albicans [5],15.6 µg/mL
same,MIC,Candida albicans [6],7.8 µg/mL
same,MIC,Candida albicans [7],7.8 µg/mL
same,MIC,Nakaseomyces glabratus,15.6 µg/mL
same,MIC,Pichia kudriavzevii,1.95 µg/mL
same,MIC,Candida parapsilosis,31.3 µg/mL
same,MIC,Aspergillus flavus,7.8 µg/mL
same,MIC,Aspergillus nidulans,7.8 µg/mL
same,MIC,Aspergillus terreus,> 31.3 µg/mL
same,CC50,A549,17.7 µg/mL
same,CC50,BEAS-2B,8.5 µg/mL
same,selectivity ratio,[8],2.3
same,selectivity ratio,[9],1.1
same,selectivity ratio,[10],2.3
same,selectivity ratio,[11],0.6
same,selectivity ratio,[12],1.1
same,selectivity ratio,[13],2.3
same,selectivity ratio,[14],2.3
same,selectivity ratio,[15],1.1
same,selectivity ratio,[16],9.1
same,selectivity ratio,[17],0.6
same,selectivity ratio,[18],2.3
same,selectivity ratio,[19],0.6
same,"hemolysis at 1 h, […]",[20],0%
same,"hemolysis at 1 h, 15.6 ug/ml",[21]; at 15.6 µg/mL,9%
same,"hemolysis at 1 h, 0.975 ug/ml",[21],0%
same,"hemolysis at 1 h, 1.95 ug/ml",[22],1.1%
same,"hemolysis at 1 h, 3.9 ug/ml",[23],0.7%
same,"hemolysis at 1 h, 7.8 ug/ml",[24],3.2%
same,"hemolysis at 1 h, 31.3 ug/ml",[25],9.6%
same,"hemolysis at 1 h, 62.5 ug/ml",[26],28.3%
same,selectivity ratio,[27],1 to 32
same,selectivity ratio,[28],1 to 32
same,selectivity ratio,[29],1 to 32
same,selectivity ratio,[30],1 to 32
same,selectivity ratio,[31],1 to 32
same,selectivity ratio,[32],1 to 32
same,selectivity ratio,[33],1 to 32
same,selectivity ratio,[34],1 to 32
same,selectivity ratio,[35],1 to 32
same,selectivity ratio,[36],1 to 32
same,selectivity ratio,[37],1 to 32
same,selectivity ratio,[38],1 to 32
same,selectivity ratio,[39],1 to 32
